From patent publication US8796256B2 (Janssen Pharmaceutica NV, priority 2010, dated 2014)

Target: T1, ERR1 (also known as ERR-α or ERR-1) (Homo sapiens, UniProt P11474)
T1 sequence (P11474 193-421 limits assumed): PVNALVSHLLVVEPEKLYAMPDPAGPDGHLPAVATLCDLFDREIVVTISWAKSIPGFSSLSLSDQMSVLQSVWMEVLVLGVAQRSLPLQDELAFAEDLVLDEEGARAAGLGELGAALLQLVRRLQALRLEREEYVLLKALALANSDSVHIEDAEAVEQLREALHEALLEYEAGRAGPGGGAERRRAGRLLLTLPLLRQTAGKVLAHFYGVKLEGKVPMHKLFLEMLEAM
Test: TR-FRET assay (disruption of co-activator peptide binding to ERR1 LBD)
Assay type: biochemical
Details: 6 nM 6His-ERR1LBD, 6 nM GST-SRC-2 peptide; average of 3 independent experiments
Summary of the method: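 Homogeneous TR-FRET measuring displacement of GST-hSRC2 co-activator peptide (6 nM) from His-tagged ERR1 LBD (6 nM), detected with α-GST Eu cryptate (30 nM) and α-His-XL665 (7.5 nM). Buffer 25 mM Tris pH 8, 2.5 mM Hepes, 20 mM KCl, 1 mM DTT, 0.05 mg/mL delipidated BSA; equilibration 4-18 h at 25° C. Hyperbolic dose-response fit, mean of 3 experiments.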

Compound	EC50 [nM]
O=C(O)CN1C(=O)S/C(=C\c2ccc3c(cnn3Cc3ccc(F)cc3C(F)(F)F)c2)C1=O [Compound 122, [(5Z)-5-({1-[4-Fluoro-2-(trifluoromethyl)benzyl]-1H-indazol-5-yl}methylidene)-2,4-dioxo-1,3-thiazolidin-3-yl]acetic acid]	314
O=C1S/C(=C\c2ccc3c(cnn3Cc3ccc(Cl)cc3C(F)(F)F)c2)C(=O)N1Cc1csc(NS(=O)(=O)C(F)(F)F)n1 [Compound 414, N-(4-{[(5Z)-5-({1-[4-Chloro-2-(trifluoromethyl)benzyl]-1H-indazol-5-yl}methylidene)-2,4-dioxo-1,3-thiazolidin-3-yl]methyl}-1,3-thiazol-2-yl)-1,1,1-trifluoromethanesulfonamide]	109
Cc1nn(Cc2ccc(Cl)cc2C(F)(F)F)c2ccc(/C=C3\SC(=O)N([C@@H]4CCN(C)C[C@H]4F)C3=O)cc12 (relative stereo) [Compound 335, (5Z)-5-({1-[4-Chloro-2-(trifluoromethyl)benzyl]-3-methyl-1H-indazol-5-yl}methylidene)-3-[trans-3-fluoro-1-methylpiperidin-4-yl]-1,3-thiazolidine-2,4-dione]	46
O=C(O)C(CC1CCNCC1)N1C(=O)S/C(=C\c2ccc3c(cnn3Cc3ccc(Cl)cc3C(F)(F)F)c2)C1=O (centres unmarked) [Compound 228, 2-[(5Z)-5-({1-[4-Chloro-2-(trifluoromethyl)benzyl]-1H-indazol-5-yl}methylidene)-2,4-dioxo-1,3-thiazolidin-3-yl]-3-piperidin-4-ylpropanoic acid]	49
COc1ccc(Cn2ncc3cc(/C=C4\SC(=O)N(CCN5CCN(C)CC5)C4=O)ccc32)c(C(F)(F)F)c1 [Compound 12, (5Z)-5-[(1-{[4-(Methyloxy)-2-(trifluoromethyl)phenyl]methyl}-1H-indazol-5-yl)methylidene]-3-[2-(4-methylpiperazin-1-yl)ethyl]-1,3-thiazolidine-2,4-dione]	72
O=C(CN1C(=O)S/C(=C\c2ccc3c(cnn3Cc3ccc(Cl)cc3C(F)(F)F)c2)C1=O)N1CCN[C@@H](CO)C1 [Compound 57, (5Z)-5-({1-[4-Chloro-2-(trifluoromethyl)benzyl]-1H-indazol-5-yl}methylidene)-3-{2-[(3R)-3-(hydroxymethyl)piperazin-1-yl]-2-oxoethyl}-1,3-thiazolidine-2,4-dione]	59
O=C(O)C(C1CCOCC1)N1C(=O)S/C(=C\c2ccc3c(cnn3Cc3ccc(Cl)cc3C(F)(F)F)c2)C1=O (centres unmarked) [Compound 219, [(5Z)-5-({1-[4-Chloro-2-(trifluoromethyl)benzyl]-1H-indazol-5-yl}methylidene)-2,4-dioxo-1,3-thiazolidin-3-yl](tetrahydro-2H-pyran-4-yl)acetic acid]	42
O=C(O)c1ccc(CN2C(=O)S/C(=C\c3ccc4c(cnn4Cc4ccc(Cl)cc4C(F)(F)F)c3)C2=O)cc1 [Compound 377, 4-{[(5Z)-5-({1-[4-Chloro-2-(trifluoromethyl)benzyl]-1H-indazol-5-yl}methylidene)-2,4-dioxo-1,3-thiazolidin-3-yl]methyl}benzoic acid]	67

More lines, in order of falling EC50, values ahead:

EC50 [nM]	Compound
41	O=C1S/C(=C\c2ccc3c(cnn3Cc3ccc(Cl)cc3C(F)(F)F)c2)C(=O)N1CCN1C[C@@H]2C[C@H]1CN2 [Compound 78, (5Z)-5-({1-[4-Chloro-2-(trifluoromethyl)benzyl]-1H-indazol-5-yl}methylidene)-3-[2-(1S,4S)-(2,5-diazabicyclo[2.2.1]hept-2-yl)ethyl]-1,3-thiazolidine-2,4-dione]
41	C[C@@H](N)CN1C(=O)S/C(=C\c2ccc3c(cnn3Cc3ccc(C(F)(F)F)cc3C(F)(F)F)c2)C1=O [Compound 80, (5Z)-3-[(2R)-2-Aminopropyl]-5-({1-[2,4-bis(trifluoromethyl)benzyl]-1H-indazol-5-yl}methylidene)-1,3-thiazolidine-2,4-dione]
38	O=C1S/C(=C\c2ccc3c(cnn3Cc3ccc(Cl)cc3C(F)(F)F)c2)C(=O)N1CCN1CCNCC1 [Compound 163, (5Z)-5-({1-[4-Chloro-2-(trifluoromethyl)benzyl]-1H-indazol-5-yl}methylidene)-3-(2-piperazin-1-ylethyl)-1,3-thiazolidine-2,4-dione]
35	CC1(C)CC(N2C(=O)S/C(=C\c3ccc4c(cnn4Cc4ccc(Cl)cc4C(F)(F)F)c3)C2=O)CC(C)(C)N1 [Compound 175, (5Z)-5-({1-[4-Chloro-2-(trifluoromethyl)benzyl]-1H-indazol-5-yl}methylidene)-3-(2,2,6,6-tetramethylpiperidin-4-yl)-1,3-thiazolidine-2,4-dione]
26	CN(CCO)CCN1C(=O)S/C(=C\c2ccc3c(cnn3Cc3ccc(Cl)cc3C(F)(F)F)c2)C1=O [Compound 51, (5Z)-5-({1-[4-Chloro-2-(trifluoromethyl)benzyl]-1H-indazol-5-yl}methylidene)-3-{2-[(2-hydroxyethyl)(methyl)amino]ethyl}-1,3-thiazolidine-2,4-dione]
25	NCCN1C(=O)S/C(=C\c2ccc3c(cnn3Cc3ccc(Cl)cc3C(F)(F)F)c2)C1=O [Compound 49, 3-(2-Aminoethyl)-(5Z)-5-({1-[4-chloro-2-(trifluoromethyl)benzyl]-1H-indazol-5-yl}methylidene)-1,3-thiazolidine-2,4-dione]
24	N#CCN1CC[C@@H](N2C(=O)S/C(=C\c3ccc4c(cnn4Cc4ccc(Cl)cc4C(F)(F)F)c3)C2=O)[C@H](F)C1 (relative stereo) [Compound 338]
23	NS(=O)(=O)N1CCC(N2C(=O)S/C(=C\c3ccc4c(cnn4Cc4ccc(Cl)cc4C(F)(F)F)c3)C2=O)CC1 [Compound 34, 4-[(5Z)-5-({1-[4-Chloro-2-(trifluoromethyl)benzyl]-1H-indazol-5-yl}methylidene)-2,4-dioxo-1,3-thiazolidin-3-yl]piperidine-1-sulfonamide]
15	O=C(O)c1ccc(CN2C(=O)S/C(=C\c3ccc4c(cnn4Cc4ccc(Cl)cc4C(F)(F)F)c3)C2=O)o1 [Compound 380, 5-{[(5Z)-5-({1-[4-Chloro-2-(trifluoromethyl)benzyl]-1H-indazol-5-yl}methylidene)-2,4-dioxo-1,3-thiazolidin-3-yl]methyl}furan-2-carboxylic acid]
14	COc1ccc(Cn2nc(C)c3cc(/C=C4\SC(=O)N(CCN5CCOCC5)C4=O)ccc32)c(C(F)(F)F)c1 [Compound 20, (5Z)-5-({1-[4-Methoxy-2-(trifluoromethyl)benzyl]-3-methyl-1H-indazol-5-yl}methylidene)-3-(2-morpholin-4-ylethyl)-1,3-thiazolidine-2,4-dione]
11	O=C1S/C(=C\c2ccc3c(cnn3Cc3ccc(Cl)cc3C(F)(F)F)c2)C(=O)N1[C@H]1CCNC[C@@H]1F [Compound 382, (5Z)-5-({1-[4-Chloro-2-(trifluoromethyl)benzyl]-1H-indazol-5-yl}methylidene)-3-[(3S,4S)-3-fluoropiperidin-4-yl]-1,3-thiazolidine-2,4-dione]
2	O=C(O)C1CCC(N2C(=O)S/C(=C\c3ccc4c(c3)c(Cl)nn4Cc3ccc(Cl)cc3C(F)(F)F)C2=O)CC1 (centres unmarked) [Compound 302, 4-[(5Z)-5-({3-Chloro-1-[4-chloro-2-(trifluoromethyl)benzyl]-1H-indazol-5-yl}methylidene)-2,4-dioxo-1,3-thiazolidin-3-yl] cyclohexanecarboxylic acid]
